According to ChEMBL document CHEMBL3885861, “Open TG-GATES”:

Species: Rattus norvegicus
Test: Open TG-GATES - Regimen: Single
Format: toxicity, organism-based, Sprague-Dawley
Set-up: regimen Single, gender Male, age 6 weeks
Conditions: in vivo, po, route gavage; for APTT / Bas / Eos / Fbg / Hb / Ht / Lym / MCH / MCHC / MCV / Mono / Neu / PT / Plat / RBC / Ret / WBC: tissue Blood; for KIDNEY_L / KIDNEY_R / KIDNEY_TOTAL: tissue Kidney; for LIVER: tissue Liver; for A/G / ALP / ALT / AST / BUN / CRE / Ca / Cl / DBIL / GLC / IP / K / LDH / Na / PL / RALB / TBIL / TC / TG / TP / gamma-GTP: tissue Plasma
[1] = 0 mg/kg, 3 h, dose level Control
[2] = 0 mg/kg, 6 h, dose level Control
[3] = 0 mg/kg, 9 h, dose level Control
[4] = 0 mg/kg, 24 h, dose level Control

## ClC(Cl)(Cl)Cl [CARBON TETRACHLORIDE]
[1]
  TERMINAL_BW: 204.7 g
  APTT: 16.7 s
  Bas: 0%
  Eos: 1%
  Fbg: 245 mg/dL
  Hb: 13 g/dL
  Ht: 37.3%
  Lym: 73.8%
  MCH: 21.7 pg
  MCHC: 34.8%
  MCV: 62.3 fL
  Mono: 3.6%
  Neu: 21.6%
  PT: 12 s
  Plat: 132.6 x10_4/uL
  RBC: 599 x10_4/ul
  Ret: 8.6%
  WBC: 103.4 x10_2/uL
  KIDNEY_L: 0.9 g
  KIDNEY_R: 0.9 g
  KIDNEY_TOTAL: 1.8 g
  LIVER: 10 g
  A/G: 1.6
  ALP: 947 IU/L
  ALT: 37.2 IU/L
  AST: 66.6 IU/L
  BUN: 13.2 mg/dL
  CRE: 0.4 mg/dL
  Ca: 11 mg/dL
  Cl: 104.2 meq/L
  DBIL: 0.3 mg/dL
  GLC: 207 mg/dL
  IP: 9 mg/dL
  K: 3.9 meq/L
  LDH: 209 IU/L
  Na: 139.6 meq/L
  PL: 179.8 mg/dL
  RALB: 3.4 g/dL
  TBIL: 0.3 mg/dL
  TC: 87.2 mg/dL
  TG: 159.6 mg/dL
  TP: 5.6 g/dL
  gamma-GTP: 0.6 IU/L
[2]
  TERMINAL_BW: 204.3 g
  APTT: 17 s
  Bas: 0%
  Eos: 0.8%
  Fbg: 230.8 mg/dL
  Hb: 13 g/dL
  Ht: 37.6%
  Lym: 69%
  MCH: 22 pg
  MCHC: 34.6%
  MCV: 63.4 fL
  Mono: 3.4%
  Neu: 26.6%
  PT: 12.1 s
  Plat: 140.4 x10_4/uL
  RBC: 593.6 x10_4/ul
  Ret: 8.9%
  WBC: 98.9 x10_2/uL
  KIDNEY_L: 0.9 g
  KIDNEY_R: 0.9 g
  KIDNEY_TOTAL: 1.8 g
  LIVER: 9 g
  A/G: 1.5
  ALP: 1166.6 IU/L
  ALT: 31.4 IU/L
  AST: 62.8 IU/L
  BUN: 9.6 mg/dL
  CRE: 0.4 mg/dL
  Ca: 10.7 mg/dL
  Cl: 104 meq/L
  DBIL: 0.094 mg/dL
  GLC: 196.8 mg/dL
  IP: 9.8 mg/dL
  K: 4.1 meq/L
  LDH: 189.2 IU/L
  Na: 139.8 meq/L
  PL: 161.4 mg/dL
  RALB: 3.3 g/dL
  TBIL: 0.2 mg/dL
  TC: 89.4 mg/dL
  TG: 61 mg/dL
  TP: 5.4 g/dL
  gamma-GTP: 1 IU/L
[3]
  TERMINAL_BW: 201.8 g
  APTT: 16.1 s
  Bas: 0%
  Eos: 0.8%
  Fbg: 222.4 mg/dL
  Hb: 12.6 g/dL
  Ht: 36.6%
  Lym: 76.6%
  MCH: 22.2 pg
  MCHC: 34.6%
  MCV: 64.2 fL
  Mono: 2.2%
  Neu: 20%
  PT: 12.2 s
  Plat: 131.9 x10_4/uL
  RBC: 570 x10_4/ul
  Ret: 9.7%
  WBC: 82.1 x10_2/uL
  KIDNEY_L: 0.9 g
  KIDNEY_R: 0.9 g
  KIDNEY_TOTAL: 1.8 g
  LIVER: 8.6 g
  A/G: 1.4
  ALP: 961.6 IU/L
  ALT: 30 IU/L
  AST: 62.6 IU/L
  BUN: 11.2 mg/dL
  CRE: 0.4 mg/dL
  Ca: 10.3 mg/dL
  Cl: 102.4 meq/L
  DBIL: 0.066 mg/dL
  GLC: 207.2 mg/dL
  IP: 10.7 mg/dL
  K: 3.7 meq/L
  LDH: 163 IU/L
  Na: 139.2 meq/L
  PL: 129.8 mg/dL
  RALB: 3.1 g/dL
  TBIL: 0.1 mg/dL
  TC: 69.8 mg/dL
  TG: 35.6 mg/dL
  TP: 5.4 g/dL
  gamma-GTP: 1.2 IU/L
[4]
  TERMINAL_BW: 215.9 g
  APTT: 18.1 s
  Bas: 0.2%
  Eos: 1%
  Fbg: 256.8 mg/dL
  Hb: 13.7 g/dL
  Ht: 38.8%
  Lym: 82%
  MCH: 22.5 pg
  MCHC: 35.3%
  MCV: 63.8 fL
  Mono: 2.4%
  Neu: 14.2%
  PT: 11.8 s
  Plat: 140.8 x10_4/uL
  RBC: 607.2 x10_4/ul
  Ret: 8%
  WBC: 105.9 x10_2/uL
  KIDNEY_L: 0.9 g
  KIDNEY_R: 0.9 g
  KIDNEY_TOTAL: 1.9 g
  LIVER: 10.6 g
  A/G: 1.6
  ALP: 1231.6 IU/L
  ALT: 37.2 IU/L
  AST: 66.6 IU/L
  BUN: 15 mg/dL
  CRE: 0.4 mg/dL
  Ca: 10.9 mg/dL
  Cl: 103 meq/L
  DBIL: 0.088 mg/dL
  GLC: 202.2 mg/dL
  IP: 7.4 mg/dL
  K: 3.8 meq/L
  LDH: 186.2 IU/L
  Na: 140 meq/L
  PL: 156.2 mg/dL
  RALB: 3.5 g/dL
  TBIL: 0.2 mg/dL
  TC: 79.2 mg/dL
  TG: 100 mg/dL
  TP: 5.7 g/dL
  gamma-GTP: 1.2 IU/L
30 mg/kg, 3 h, dose level Low
  TERMINAL_BW: 206.6 g
  APTT: 16.5 s
  Bas: 0%
  Eos: 0.8%
  Fbg: 259.6 mg/dL
  Hb: 13 g/dL
  Ht: 37.5%
  Lym: 76.6%
  MCH: 21.2 pg
  MCHC: 34.6%
  MCV: 61.4 fL
  Mono: 3.4%
  Neu: 19%
  PT: 12.3 s
  Plat: 127.9 x10_4/uL
  RBC: 610.8 x10_4/ul
  Ret: 8.6%
  WBC: 95.4 x10_2/uL
  KIDNEY_L: 0.9 g
  KIDNEY_R: 0.9 g
  KIDNEY_TOTAL: 1.9 g
  LIVER: 9.7 g
  A/G: 1.6
  ALP: 1090.2 IU/L
  ALT: 39.6 IU/L
  AST: 67.4 IU/L
  BUN: 11.8 mg/dL
  CRE: 0.4 mg/dL
  Ca: 10.9 mg/dL
  Cl: 104 meq/L
  DBIL: 0.1 mg/dL
  GLC: 192.6 mg/dL
  IP: 9.8 mg/dL
  K: 3.8 meq/L
  LDH: 198.8 IU/L
  Na: 140.2 meq/L
  PL: 169.2 mg/dL
  RALB: 3.4 g/dL
  TBIL: 0.2 mg/dL
  TC: 86 mg/dL
  TG: 81.2 mg/dL
  TP: 5.6 g/dL
  gamma-GTP: 1.4 IU/L
30 mg/kg, 6 h, dose level Low
  TERMINAL_BW: 205.6 g
  APTT: 17.9 s
  Bas: 0%
  Eos: 1%
  Fbg: 242 mg/dL
  Hb: 13.1 g/dL
  Ht: 37.4%
  Lym: 72.8%
  MCH: 22 pg
  MCHC: 34.9%
  MCV: 63.1 fL
  Mono: 2.6%
  Neu: 22.8%
  PT: 12.7 s
  Plat: 134.6 x10_4/uL
  RBC: 593.6 x10_4/ul
  Ret: 8.6%
  WBC: 78.1 x10_2/uL
  KIDNEY_L: 0.9 g
  KIDNEY_R: 0.9 g
  KIDNEY_TOTAL: 1.8 g
  LIVER: 9.4 g
  A/G: 1.7
  ALP: 1051 IU/L
  ALT: 29.4 IU/L
  AST: 63.8 IU/L
  BUN: 10.2 mg/dL
  CRE: 0.4 mg/dL
  Ca: 10.6 mg/dL
  Cl: 104.4 meq/L
  DBIL: 0.1 mg/dL
  GLC: 195 mg/dL
  IP: 9.4 mg/dL
  K: 4.1 meq/L
  LDH: 221.2 IU/L
  Na: 139.6 meq/L
  PL: 159 mg/dL
  RALB: 3.5 g/dL
  TBIL: 0.2 mg/dL
  TC: 79 mg/dL
  TG: 91.2 mg/dL
  TP: 5.6 g/dL
  gamma-GTP: 1 IU/L
30 mg/kg, 9 h, dose level Low
  TERMINAL_BW: 201.5 g
  APTT: 17.2 s
  Bas: 0%
  Eos: 0.8%
  Fbg: 229.4 mg/dL
  Hb: 12.7 g/dL
  Ht: 36.5%
  Lym: 74%
  MCH: 21.4 pg
  MCHC: 34.8%
  MCV: 61.6 fL
  Mono: 2.2%
  Neu: 22.6%
  PT: 12.5 s
  Plat: 126.6 x10_4/uL
  RBC: 593.2 x10_4/ul
  Ret: 9.1%
  WBC: 76.5 x10_2/uL
  KIDNEY_L: 0.9 g
  KIDNEY_R: 0.9 g
  KIDNEY_TOTAL: 1.8 g
  LIVER: 8.6 g
  A/G: 1.6
  ALP: 1042.2 IU/L
  ALT: 29.8 IU/L
  AST: 58 IU/L
  BUN: 10 mg/dL
  CRE: 0.4 mg/dL
  Ca: 10.4 mg/dL
  Cl: 103.8 meq/L
  DBIL: 0.09 mg/dL
  GLC: 196.8 mg/dL
  IP: 10.6 mg/dL
  K: 3.6 meq/L
  LDH: 174 IU/L
  Na: 140.2 meq/L
  PL: 150.8 mg/dL
  RALB: 3.3 g/dL
  TBIL: 0.2 mg/dL
  TC: 75.8 mg/dL
  TG: 57.2 mg/dL
  TP: 5.4 g/dL
  gamma-GTP: 0.8 IU/L
30 mg/kg, 24 h, dose level Low
  TERMINAL_BW: 211.3 g
  APTT: 19.1 s
  Bas: 0%
  Eos: 0.8%
  Fbg: 229.6 mg/dL
  Hb: 13.6 g/dL
  Ht: 38.8%
  Lym: 84.4%
  MCH: 22.4 pg
  MCHC: 35%
  MCV: 64 fL
  Mono: 2.6%
  Neu: 11.6%
  PT: 12.1 s
  Plat: 132.2 x10_4/uL
  RBC: 606.4 x10_4/ul
  Ret: 8%
  WBC: 101.3 x10_2/uL
  KIDNEY_L: 1 g
  KIDNEY_R: 1 g
  KIDNEY_TOTAL: 2 g
  LIVER: 10.4 g
  A/G: 1.6
  ALP: 1115.2 IU/L
  ALT: 42.4 IU/L
  AST: 69.6 IU/L
  BUN: 14.8 mg/dL
  CRE: 0.4 mg/dL
  Ca: 10.7 mg/dL
  Cl: 103.8 meq/L
  DBIL: 0.07 mg/dL
  GLC: 202 mg/dL
  IP: 7.7 mg/dL
  K: 3.8 meq/L
  LDH: 188.8 IU/L
  Na: 140.6 meq/L
  PL: 155.2 mg/dL
  RALB: 3.5 g/dL
  TBIL: 0.1 mg/dL
  TC: 81.2 mg/dL
  TG: 61.8 mg/dL
  TP: 5.7 g/dL
  gamma-GTP: 1.4 IU/L
